In brackets after ≈: the same amount, converted by molar mass. Read-outs that look alike come from different tables or passages of the source.
Experiments:
Assay type in all cases: cell-based
A549 = assay: cells; settings: Homo sapiens; for LC50 (concentration causing 50% net cell loss): A549, read-out: LC50; for GI50 / IC50 / IC (total growth inhibition): A549, MTT; for IC50: read-out: IC50; for IC (total growth inhibition): read-out: TGI
Procedure, shortened: (§1)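 Cells were seeded at about 1 × 10^4 per well, brought to 200 μL with medium, and assessed by MTT: 4 h with MTT reagent, formazan dissolved in DMSO with Sorenson's buffer, absorbance read at 560 nm (690 nm reference). IC50 derived from percent inhibition relative to DMSO.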

C6 (Rat brain glioma) = assay: cells; settings: Rattus norvegicus; for LC50 (concentration giving 50% net cell loss relative to time zero): read-out: LC50; for GI50 / IC50 / IC (total growth inhibition): C6, MTT; for IC50: read-out: IC50; for IC (total growth inhibition): read-out: TGI
Procedure, shortened: as §1

HT29 = assay: cells; settings: Homo sapiens; for LC50 (concentration giving 50% net cell loss relative to time zero): HT-29, read-out: LC50; for GI50 / IC50 / IC (total growth inhibition): HT-29, HT29, MTT; for IC50: read-out: IC50; for IC (total growth inhibition): read-out: TGI
Procedure, shortened: as §1

HeLa = assay: cells; settings: Homo sapiens; for GI50 / IC50 / IC (total growth inhibition): MTT; for IC50: read-out: IC50; for IC (total growth inhibition): read-out: TGI; for LC50 (concentration causing 50% net cell loss): read-out: LC50
Procedure, shortened: as §1

Hep3B = assay: cells; settings: Homo sapiens; for GI50 / IC50 / IC (total growth inhibition): MTT; for IC50: read-out: IC50; for IC (total growth inhibition): read-out: TGI; for LC50 (concentration causing 50% net cell loss relative to time zero): read-out: LC50
Procedure, shortened: as §1

MCF7 = assay: cells; settings: Homo sapiens; for LC50 (concentration causing 50% net cell loss relative to time zero): MCF7, read-out: LC50; for GI50 / IC50 / IC (total growth inhibition): MCF7, MTT; for IC50: read-out: IC50; for IC (total growth inhibition): read-out: TGI
Procedure, shortened: as §1

[1] = LDH cytotoxic activity assay, HeLa; settings: human, HeLa cells
Procedure, shortened: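 About 5 × 10^3 cells per well, in triplicate, exposed to 25, 50, 75 and 100 μg/mL of test compound for 24 h at 37 °C, 5% CO2. Cells grown in DMEM or RPMI 1640 with 10% FBS. LDH activity read as absorbance at 492–630 nm.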

[2] = system: A. actinomycetemcomitans ATCC 33384; assay: Microdilution MIC assay; settings: Aggregatibacter actinomycetemcomitans, ATCC33384; A. actinomycetemcomitans ATCC 33384, 24 h at 35 °C
Procedure, shortened: (§2)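 Broth microdilution in microwells; plates incubated 24 h at 35 °C. MIC taken as the lowest concentration with no visible growth (turbidity), read by eye.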

E. coli ATCC 25922 = assay: Microdilution MIC assay; settings: Escherichia coli, ATCC25922; E. coli ATCC 25922, 24 h at 35 °C
Procedure, shortened: as §2

E. coli ESBL ATCC 35218 = assay: Microdilution MIC assay; settings: Escherichia coli, ATCC35218; E. coli ESBL ATCC 35218, 24 h at 35 °C
Procedure, shortened: as §2

E. faecalis ATCC 29212 = assay: Microdilution MIC assay; settings: Enterococcus faecalis, ATCC29212, 24 h, E. faecalis ATCC 29212, 24 h at 35 °C; read-out: MIC
Procedure, shortened: as §2

[3] = system: E. faecalis VRE ATCC 19433; assay: Microdilution MIC assay; settings: Enterococcus faecalis; E. faecalis VRE ATCC 19433, 24 h at 35 °C
Procedure, shortened: as §2

[4] = system: P. aeruginosa AGME ATCC 27853; assay: Microdilution MIC assay; settings: Pseudomonas aeruginosa, ATCC27853; P. aeruginosa AGME ATCC 27853, 24 h at 35 °C
Procedure, shortened: as §2

S. aureus ATCC 25923 = assay: Microdilution MIC assay; settings: S. aureus ATCC 25923, 24 h at 35 °C
Procedure, shortened: as §2

[5] = system: S. aureus MRSA ATCC 46300; assay: Microdilution MIC assay; settings: S. aureus MRSA ATCC 46300, 24 h at 35 °C
Procedure, shortened: as §2

S. gordonii NCTC 7870 = assay: Microdilution MIC assay; settings: Streptococcus gordonii, NCTC7870; S. gordonii NCTC 7870, 24 h at 35 °C
Procedure, shortened: as §2

S. mutans ATCC 35668 = assay: Microdilution MIC assay; settings: Streptococcus mutans, ATCC35668, 24 h, S. mutans ATCC 35668, 24 h at 35 °C; read-out: MIC
Procedure, shortened: as §2

[6] = Staphylococcus aureus, ATCC25923, 24 h, read-out: MIC
[7] = Staphylococcus aureus, read-out: MIC

Compound	LC50 (concentration causing 50% net cell loss) (A549) [µg/mL]	GI50 (A549) [µg/mL]	IC50 (A549) [µg/mL]	IC (total growth inhibition) (A549) [µg/mL]	LC50 (concentration giving 50% net cell loss relative to time zero) (C6 (Rat brain glioma)) [µg/mL]	GI50 (C6 (Rat brain glioma)) [µg/mL]	IC50 (C6 (Rat brain glioma)) [µg/mL]	IC (total growth inhibition) (C6 (Rat brain glioma)) [µg/mL]	LC50 (concentration giving 50% net cell loss relative to time zero) (HT29) [µg/mL]	GI50 (HT29) [µg/mL]	IC50 (HT29) [µg/mL]	IC (total growth inhibition) (HT29) [µg/mL]	GI50 (HeLa) [µg/mL]	IC50 (HeLa) [µg/mL]	IC (total growth inhibition) (HeLa) [µg/mL]	LC50 (concentration causing 50% net cell loss) (HeLa) [µg/mL]	GI50 (Hep3B) [µg/mL]	IC50 (Hep3B) [µg/mL]	IC (total growth inhibition) (Hep3B) [µg/mL]	LC50 (concentration causing 50% net cell loss relative to time zero) (Hep3B) [µg/mL]	other results
Cc1cccc(-c2cc(-c3ccncc3)nc(N[C@@H]3O[C@H](CO)[C@@H](O)[C@H](O)[C@H]3O)n2)c1 [Compound 6, N-[4-(3-methylphenyl)-6-pyridin-4-ylpyrimidin-2-yl]-β-D-glucopyranosylamine]	> 500	192 (≈ 453 µM)	> 500	> 500	> 500	> 500	> 500	> 500	> 500	4.29 (≈ 10.1 µM)	> 500	> 500	> 500	> 500	> 500	> 500	4.07 (≈ 9.59 µM)	> 500	> 500	> 500	LC50 (concentration causing 50% net cell loss relative to time zero) (MCF7): > 500 µg/mL; GI50 (MCF7): 2.29 µg/mL (≈ 5.4 µM); IC50 (MCF7): > 500 µg/mL; IC (total growth inhibition) (MCF7): > 500 µg/mL; cytotoxicity at 24 h, 25 μg/mL [1]: 14.3%; cytotoxicity at 24 h, 50 μg/mL [1]: 29.2%; cytotoxicity at 24 h, 75 μg/mL [1]: 44.5%; cytotoxicity at 24 h, 100 μg/mL [1]: 47.8%; MIC [2]: 500 µg/mL (≈ 1180 µM); MIC (E. coli ATCC 25922): > 1000 µg/mL; MIC (E. coli ESBL ATCC 35218): > 1000 µg/mL; MIC (E. faecalis ATCC 29212): 1000 µg/mL (≈ 2360 µM); MIC [3]: 1000 µg/mL (≈ 2360 µM); MIC [4]: > 1000 µg/mL; MIC (S. aureus ATCC 25923; [6]): 500 µg/mL (≈ 1180 µM); MIC [5, 7]: 250 µg/mL (≈ 589 µM); MIC (S. gordonii NCTC 7870): 250 µg/mL (≈ 589 µM); MIC (S. mutans ATCC 35668): 500 µg/mL (≈ 1180 µM)
Cc1ccc(-c2cc(-c3cccnc3)nc(N[C@@H]3O[C@H](CO)[C@@H](O)[C@H](O)[C@H]3O)n2)cc1 [Compound 8, N-[4-(4-methylphenyl)-6-pyridin-3-ylpyrimidin-2-yl]-β-D-glucopyranosylamine]	> 500	> 500	> 500	> 500	225 (≈ 530 µM)	8.71 (≈ 20.5 µM)	49 (≈ 115 µM)	30.7	> 500	4.43 (≈ 10.4 µM)	42.5 (≈ 100 µM)	60	14.1 (≈ 33.2 µM)	81.3 (≈ 191 µM)	50.1	325 (≈ 766 µM)	6.38 (≈ 15 µM)	> 500	> 500	> 500	LC50 (concentration causing 50% net cell loss relative to time zero) (MCF7): > 500 µg/mL; GI50 (MCF7): 1.7 µg/mL (≈ 4.01 µM); IC50 (MCF7): > 500 µg/mL; IC (total growth inhibition) (MCF7): > 500 µg/mL; cytotoxicity at 24 h, 25 μg/mL [1]: 12.5%; cytotoxicity at 24 h, 50 μg/mL [1]: 35%; cytotoxicity at 24 h, 75 μg/mL [1]: 42%; cytotoxicity at 24 h, 100 μg/mL [1]: 49%; MIC [2]: 500 µg/mL (≈ 1180 µM); MIC (E. coli ATCC 25922): 1000 µg/mL (≈ 2360 µM); MIC (E. coli ESBL ATCC 35218): > 1000 µg/mL; MIC (E. faecalis ATCC 29212): 1000 µg/mL (≈ 2360 µM); MIC [3]: 500 µg/mL (≈ 1180 µM); MIC [4]: > 1000 µg/mL; MIC (S. aureus ATCC 25923): 15.62 µg/mL (≈ 36.8 µM); MIC (S. aureus ATCC 25923; [6]): 15.6 to 125 µg/mL (≈ 36.8 to 294 µM); MIC [5]: <7.81 µg/mL; MIC [5, 7]: < 7.81 µg/mL; MIC (S. gordonii NCTC 7870): 250 µg/mL (≈ 589 µM); MIC (S. mutans ATCC 35668): 250 µg/mL (≈ 589 µM)

Source: article PMC10387993, “New pyrimidine-N-β-D-glucosides: synthesis, biological evaluation, and molecular docking investigations” (Turkish Journal of Chemistry, 2023)
